From patent US9357778B2, “N-acyl-2-(cyclo)alkypyrrolidines and piperidines useful as fungicides” (BAYER CROPSCIENCE AG, priority 2012, dated 2016)
Marks after values point to notes of the source that are not given here.

Legend:
Leptosphaeria nodorum = assay: In vivo preventive test on Leptosphaeria nodorum (wheat); conditions: evaluated 8 days after inoculation
Protocol: In Vivo Preventive Test on Leptosphaeria nodorum (Wheat) • Solvent: 49 parts by weight of N,N-dimethylacetamide • Emulsifier: 1 part by weight of alkylaryl polyglycol ether To produce a suitable preparation of active compound, 1 part by weight of active compound or active compound combination is mixed with the stated amounts of solvent and emulsifier, and the concentrate is diluted with water to the desired concentration. To test for preventive activity, young plants are sprayed with the preparation of active compound or active compound combination at the stated rate of application. After the spray coating has been dried, the plants are sprayed with a spore suspension of Leptosphaeria nodorum. The plants remain for 48 hours in an incubation cabinet at approximately 20° C. and a relative atmospheric humidity of approximately 100%. The plants are placed in the greenhouse at a temperature of approximately 22° C. and a relative atmospheric humidity of approximately 80%. The test is evaluated 8 days after the inoculation. 0% means an efficacy which corresponds to that of the untreated control, while an efficacy of 100% means that no disease is observed.

[1] = log P by HPLC on reversed-phase column (C 18), EEC Directive 79/831 Annex V.A8; type: physicochemical; conditions: 40° C., 0.1% aqueous formic acid and acetonitrile
Protocol: In table 1, the log P values were determined in accordance with EEC Directive 79/831 Annex V.A8 by HPLC (High Performance Liquid Chromatography) on a reversed-phase column (C 18), using the method described below: Temperature: 40° C.; Mobile phases: 0.1% aqueous formic acid and acetonitrile; linear gradient from 10% acetonitrile to 90% acetonitrile. Calibration was carried out using unbranched alkan-2-ones (comprising 3 to 16 carbon atoms) with known log P values (determination of the log P values by the retention times using linear interpolation between two successive alkanones). lambda-max-values were determined using UV-spectra from 200 nm to 400 nm and the peak values of the chromatographic signals.

Sphaerotheca fuliginea = assay: In vivo preventive test on Sphaerotheca fuliginea (cucumber); conditions: 500 ppm of active ingredient, evaluated 7 days after inoculation
Protocol: In Vivo Preventive Test on Sphaerotheca Fulicinea (Cucumber) • Solvent: 49 parts by weight of N,N-dimethylformamide • Emulsifier: 1 part by weight of alkylarylpolyglycolether To produce a suitable preparation of active compound, 1 part by weight of active compound is mixed with the stated amounts of solvent and emulsifier, and the concentrate is diluted with water to the desired concentration. To test for preventive activity, young plants are sprayed with the preparation of active compound at the stated rate of application. One day after this treatment, the plants are inoculated with an aqueous spore suspension of Sphaerotheca fuliginea. Then the plants are placed in a greenhouse at approximately 23° C. and a relative atmospheric humidity of approximately 70%. The test is evaluated 7 days after the inoculation. 0% means an efficacy which corresponds to that of the untreated control, while an efficacy of 100% means that no disease is observed.

Alternaria solani = assay: In vivo preventive test on Alternaria solani (tomato); conditions: evaluated 7 days after inoculation
Protocol: In Vivo Preventive Test on Alternaria solani (Tomato) • Solvent: 49 parts by weight of N,N-dimethylformamide • Emulsifier: 1 part by weight of alkylarylpolyglycolether To produce a suitable preparation of active compound, 1 part by weight of active compound is mixed with the stated amounts of solvent and emulsifier, and the concentrate is diluted with water to the desired concentration. To test for preventive activity, young plants are sprayed with the preparation of active compound at the stated rate of application. One day after this treatment, the plants are inoculated with an aqueous spore suspension of Alternaria solani. The plants remain for one day in an incubation cabinet at approximately 22° C. and a relative atmospheric humidity of 100%. Then the plants are placed in an incubation cabinet at approximately 20° C. and a relative atmospheric humidity of 96%. The test is evaluated 7 days after the inoculation. 0% means an efficacy which corresponds to that of the untreated control while an efficacy of 100% means that no disease is observed.

Pyrenophora teres = assay: In vivo preventive test on Pyrenophora teres (barley); conditions: 500 ppm of active ingredient, evaluated 7-9 days after inoculation
Protocol: In Vivo Preventive Test on Pyrenophora teres (Barley) • Solvent: 49 parts by weight of N,N-dimethylformamide • Emulsifier: 1 part by weight of alkylaryl polyglycol ether To produce a suitable preparation of active compound, 1 part by weight of active compound is mixed with the stated amounts of solvent and emulsifier, and the concentrate is diluted with water to the desired concentration. To test for preventive activity, young plants are sprayed with the preparation of active compound at the stated rate of application. One day after this treatment, the plants are inoculated with an aqueous spore suspension of Pyrenophora teres. The plants remain for 48 hours in an incubation cabinet at 22° C. and a relative atmospheric humidity of 100%. Then the plants are placed in a greenhouse at a temperature of approximately 20° C. and a relative atmospheric humidity of approximately 80%. The test is evaluated 7-9 days after the inoculation. 0% means an efficacy which corresponds to that of the untreated control while an efficacy of 100% means that no disease is observed.

Tomato = assay: Plant damages observed in the Alternaria solani preventive test (tomato); type: in vivo; conditions: footnote to table B2
Protocol: In Vivo Preventive Test on Alternaria solani (Tomato) To test for preventive activity, young plants are sprayed with the preparation of active compound at the stated rate of application. One day after this treatment, the plants are inoculated with an aqueous spore suspension of Alternaria solani. The plants remain for one day in an incubation cabinet at approximately 22° C. and a relative atmospheric humidity of 100%. Then the plants are placed in an incubation cabinet at approximately 20° C. and a relative atmospheric humidity of 96%. Under the same conditions, high (at least 85%) to total protection is observed at a dose of 500 and 100 ppm of active ingredient with compound of example 12, 20 and 25, whereas poor (less than 20%) protection to 100% of plant damages is observed with compound 1.006, compound CMP1 (chloro analogue of compound 1.006) and compound CMP2 (fluoro analogue of compound 1.006) claimed in patent application WO-2009/153191 as in table B2: […]

| SMILES | logP [1] | Efficacy (Leptosphaeria nodorum; 100 ppm of active ingredient) [%] | Efficacy (Leptosphaeria nodorum; 500 ppm of active ingredient) [%] | Efficacy (Sphaerotheca fuliginea) [%] | Efficacy (Alternaria solani; 500 ppm of active ingredient) [%] | Efficacy (Pyrenophora teres) [%] | plant damages (Tomato; 500 ppm) | Efficacy (Alternaria solani; 100 ppm of active ingredient) | plant damages (Tomato; 100 ppm) |
| --- | --- | --- | --- | --- | --- | --- | --- | --- | --- |
| Cn1nc(C(F)F)c(C(=O)N2CCCC2C2CCCCC2)c1F (stereo not shown) [Example 11] | 3.31 | 80 | 95 | 95 | 94 | 100 | – | – | – |
| Cn1cc(C(=O)N2CCC[C@H]2COc2c(Cl)cc(Cl)cc2Cl)c(C(F)F)n1 [Compound 1.006, [3-(difluoromethyl)-1-methyl-1H-pyrazol-4-yl]{(2S)-2-[(2,4,6-trichlorophenoxy)methyl]pyrrolidin-1-yl}methanone, reference compound] | – | 40 | 60 | – | – | – | ^(a)together with 100% of plant damages | 20 ^(b) % | – |
| Cn1nc(C(F)F)c(C(=O)N2CCC[C@H]2COc2c(Cl)cc(Cl)cc2Cl)c1Cl [CMP1, [5-chloro-3-(difluoromethyl)-1-methyl-1H-pyrazol-4-yl]{(2S)-2-[(2,4,6-trichlorophenoxy)methyl]pyrrolidin-1-yl}methanone, reference compound] | – | 0 | 0 | – | – | – | ^(a)together with 100% of plant damages | – | ^(a)together with 100% of plant damages |
| Cn1nc(C(F)F)c(C(=O)N2CCC[C@H]2COc2c(Cl)cc(Cl)cc2Cl)c1F [CMP2, [3-(difluoromethyl)-5-fluoro-1-methyl-1H-pyrazol-4-yl]{(2S)-2-[(2,4,6-trichlorophenoxy)methyl]pyrrolidin-1-yl}methanone] | – | – | – | – | – | – | ^(a)together with 100% of plant damages | – | ^(a)together with 100% of plant damages |
| CCCCCCC1CCCN1C(=O)c1c(C(F)F)nn(C)c1F (stereo not shown) [Example 8] | 3.80 | 90 | 95 | 98 | – | 100 | – | – | – |

The next lines start with results.

| logP [1] | SMILES | Efficacy (Leptosphaeria nodorum; 100 ppm of active ingredient) [%] | Efficacy (Leptosphaeria nodorum; 500 ppm of active ingredient) [%] | Efficacy (Sphaerotheca fuliginea) [%] | Efficacy (Alternaria solani; 500 ppm of active ingredient) [%] | Efficacy (Pyrenophora teres) [%] | plant damages (Tomato; 500 ppm) | Efficacy (Alternaria solani; 100 ppm of active ingredient) | plant damages (Tomato; 100 ppm) |
| --- | --- | --- | --- | --- | --- | --- | --- | --- | --- |
| 3.89 | Cn1nc(C(F)F)c(C(=O)N2CCCC2CC2CC3CCC2C3)c1F (stereo not shown) [Example 48] | – | 90 | 100 | 100 | 100 | – | – | – |
| 3.44 | Cn1cc(C(=O)N2CCCC2CC2CC3CCC2C3)c(C(F)F)n1 (stereo not shown) [Example 49] | – | 70 | 90 | 94 | 100 | – | – | – |
| 3.78 | Cn1nc(C(F)F)c(C(=O)N2CCCC2CC2CCCCC2)c1F (stereo not shown) [Example 17] | 80 | 95 | 100 | 94 | 100 | – | – | – |
